Results as given in ChEMBL document CHEMBL2434903, “Synthesis and biological evaluation of furopyrimidine N,O-nucleosides” (Bioorg Med Chem, 2013).
Calls of active or inactive are those of the source. No cut-off for these calls is given here.

Legend:
Coxsackievirus B4 = experiment: Antiviral activity against Coxsackievirus B4 VR-1035 infected in African green monkey Vero cells assessed as inhibition of virus-induced cytopathogenicity; type: functional, organism-based
Human alphaherpesvirus 2 = experiment: Antiviral activity against Herpes simplex virus type 2 VR-734 infected in African green monkey Vero cells assessed as inhibition of virus-induced cytopathogenicity; type: functional, organism-based
Echovirus E9 = experiment: Antiviral activity against Human echovirus 9 VR-1050 infected in African green monkey Vero cells assessed as inhibition of virus-induced cytopathogenicity; type: functional, organism-based
Human adenovirus 2 = experiment: Antiviral activity against Adenovirus 2 VR-1080 infected in African green monkey Vero cells assessed as inhibition of virus-induced cytopathogenicity; type: functional, organism-based
Poliovirus 1 = experiment: Antiviral activity against Poliovirus 1 Sabin VR-1562 infected in African green monkey Vero cells assessed as inhibition of virus-induced cytopathogenicity; type: functional, cell-based; settings: Human poliovirus 1 strain Sabin
Human alphaherpesvirus 1 = experiment: Antiviral activity against Herpes simplex virus type 1 VR-260 infected in African green monkey Vero cells assessed as inhibition of virus-induced cytopathogenicity; type: functional, organism-based
Human betaherpesvirus 5 = experiment: Antiviral activity against Cytomegalovirus VR-538 infected in human MRC5 cells assessed as inhibition of virus-induced cytopathogenicity; type: functional, organism-based
[1] = Cytostatic activity against African green monkey Vero cells by MTT assay; type: ADME, cell-based; settings: chlorocebus sabaeus
Human alphaherpesvirus 3 = experiment: Antiviral activity against Varicella-zoster virus VR-1367 infected in African green monkey BSC1 cells assessed as inhibition of virus plaque formation; type: functional, organism-based; settings: BSC-1
[2] = Cytostatic activity against human MRC5 cells by MTT assay; type: ADME, cell-based
[3] = Cytotoxicity against African green monkey Vero cells assessed as change in cell morphology after 24 to 96 hrs by light microscopic analysis; type: cell-based; settings: chlorocebus sabaeus
[4] = Cytotoxicity against human MRC5 cells assessed as change in cell morphology after 24 to 96 hrs by light microscopic analysis; type: cell-based
[5] = Cytostatic activity against African green monkey BSC1 cells by MTT assay; type: ADME, cell-based, BSC-1; settings: chlorocebus aethiops
[6] = Cytotoxicity against African green monkey BSC1 cells assessed as change in cell morphology after 24 to 96 hrs by light microscopic analysis; type: cell-based, BSC-1; settings: chlorocebus aethiops

Compound | inhibition (Coxsackievirus B4) | inhibition (Human alphaherpesvirus 2) | inhibition (Echovirus E9) | inhibition (Human adenovirus 2) | inhibition (Poliovirus 1) | inhibition (Human alphaherpesvirus 1) | inhibition (Human betaherpesvirus 5) | CC50 [1] | inhibition (Human alphaherpesvirus 3) | CC50 [2] | MCC [3] | MCC [4] | CC50 [5] | MCC [6]
CCCc1cc2cn(C3CC(CO)N(C)O3)c(=O)nc2o1 (stereo not drawn) | inactive | inactive | inactive | inactive | inactive | inactive | inactive | 31.2 µM | inactive | 31.2 µM | > 500 µM | > 250 µM | 7 µM | > 250 µM
Nc1nc2c(ncn2COCCO)c(=O)[nH]1 | Active | Active | Active | Active | Active | Active | Active | – | Active | – | – | – | – | –
COc1ccc(-c2cc3cn(C4CC(CO)N(C)O4)c(=O)nc3o2)cc1 (racemic) | inactive | inactive | inactive | inactive | inactive | inactive | inactive | 62.5 µM | inactive | 31.2 µM | 62.5 µM | 62 µM | 7 µM | 62 µM
CCCCCc1ccc(-c2cc3cn(C4CC(CO)N(C)O4)c(=O)nc3o2)cc1 (racemic) | inactive | inactive | inactive | inactive | inactive | inactive | inactive | 3 µM | inactive | 1.5 µM | 6 µM | 6 µM | 0.7 µM | 6 µM
CN1OC(n2cc3cc(-c4ccccc4)oc3nc2=O)CC1CO (racemic) | inactive | inactive | inactive | inactive | inactive | inactive | inactive | 125 µM | inactive | 125 µM | 125 µM | > 250 µM | 32 µM | > 250 µM
CN1OC(n2cc3ccoc3nc2=O)CC1CO (racemic) | inactive | inactive | inactive | inactive | inactive | inactive | inactive | 125 µM | inactive | > 250 µM | > 500 µM | > 250 µM | 62 µM | > 250 µM
